According to patent US20140323593A1, “METHODS AND APPARATUS FOR THE CONTROL OF ADENOSINE TRIPHOSPHATE SYNTHASE ACTIVITY WITHIN LIVING ORGANISMS, AND CONDITIONING OF WATER-BASED FLUIDS AND SUBSTANCES USING MAGNETIC FIELD EXPOSURES OR THEIR WITHDRAWAL” (priority 2013, published 2014):

Key:
leukemic cell K562 = assay: average reductions in chromosome numbers (karyotype contraction) in K562; format: cell-based, human
From the text: First, we observed that 5 different cancer cell lines representative of the most common human cancers display a reduction in their chromosome numbers when exposed to 60-Hz MFs (Appendix 1). Reductions in chromosome numbers result from metabolic restriction (Li et al., 2012), which can be caused by impaired ATPS function.
Fourth, Russian physicists (Semikhina and Kiselev, 1981) observed resonances for water at specific frequency-amplitude combinations that are broadened by the presence of even small levels of impurities. They detected one maximum at 156.2-Hz and 15.45 μT for 7° C. pure water (Semikhina et al, 1988). In our experiments compiling average chromosome losses over frequency in anoxic K562 (5% carbon dioxide and 37° C.) 6-day tests at 1 μT, a wide resonance was measured as follows: −3.6±0.79 at 50-Hz, −9.36±1.06 at 60-Hz, −12.71±1.82 at 120-Hz and −9.8±1.31 at 155-Hz. […] The ATPS resonance at […] we documented is indeed wider than that reported by Semikhina for pure water. […]
Our laboratory has detected ATPSI at all tested frequencies and at all MF intensities above 25 nT using measurements of karyotype contraction (see Appendix 1) in numerous cell lines: K562 and HEL (erythro-leukemias). […] In our experiments, ATPSI detected by karyotype contractions varied only weakly with field intensities between 25 nT and 5 μT, but probably cover the range of 10 nT to 879 μT. […]

[1] = tested on: 60 cancer cell lines maintained by the US National Cancer Institute (NCI-60); details: mean over NCI-60 cell lines; read-out: IC50 (the concentration inhibiting proliferation rate by 50%), mean; cited from earlier work

Structure (SMILES) | average reductions in chromosome numbers (leukemic cell K562; K562, substance alone for 3 days, metformin 0.01 mg/l, resistin 40 ng/l) | average reductions in chromosome numbers (losses) with 1 μT added (leukemic cell K562; K562, 1 μT magnetic field added to metformin 0.01 mg/l or resistin 40 ng/l, 1 μT alone 7.5) | IC50 [1] [nM]
CN(C)C(=N)N=C(N)N [Metformin] | 9 | 11±0.34 | –
CC[C@H]1/C=C/C=C/C[C@@H](C)[C@H](O)[C@@](C)(O)C(=O)[C@@H](C)[C@H](O)[C@@H](C)C(=O)[C@@H](C)[C@H](O)[C@@H](C)/C=C/C(=O)O[C@@H]2[C@H](C)[C@H](CC1)O[C@]1(CC[C@H](C)[C@H](C[C@@H](C)O)O1)[C@H]2C [oligomycin] | – | – | 300
